{
  "source": "paper PMC10862732",
  "about": "(bioRxiv, 2024)",
  "tested_on": "T7 LysY/Iq E. coli",
  "assay_type": "cell-based",
  "details": "0 – 0.5 mM IPTG, 37 °C, 12 hours, OD600",
  "data": [
    {"substance": "RRIRFRPPYL•••G••PRFPPPFPIPRIPRIP [Tur1a]", "values": [
      {"measurement": "Host growth upon induction of AMP expression with IPTG (self-depletion)", "result": "dramatically slowed growth"}
    ]}
  ]
}
